Source: patent US10426772B2, “Use of ergot alkaloids as an anthelmintic agent” (priority 2016, dated 2019)

How the values were obtained:
[1] = tested on: adult S. mansoni; assay: Movement assay of cultured adult S. mansoni (Example 2); type: cell-based; settings: Schistosoma mansoni; FIG. 19B; read-out: EC50, stimulation of adult schistosome movement
Text: (§1) Female Swiss Webster mice infected with S. mansoni cerceria (NMRI strain) were sacrificed 49 days post infection by CO2 euthanasia. Adult schistosomes were recovered by perfusion with a solution of 0.85% sodium chloride+0.75% sodium citrate and dissection of the mesenteric vasculature. Harvested schistosomes were washed in RPMI 1640 Medium with GlutaMAX+5% heat inactivated FBS (Gibco) and Penicillin-Streptomycin (final concentration 100 units/mL, ThermoFisher cat #15140122).
For movement assays, worms were cultured 37° C./5% CO2 in vented 100×25 mm petri dishes (ThermoFisher cat #4031) containing 50 mL of media and used between 1-3 days after harvesting. Prior to assessing worm movement, individuals were transferred to a six well dish (4-5 individuals per well) containing 3 mL drug solution in RPMI 1640 supplemented with HEPES (25 mM) and MS (5%). Videos were recorded using a Zeiss Discovery v20 stereomicroscope and a QiCAM 12-bit cooled color CCD camera controlled by metamorph imaging software (version 7.8.1.0). 1 minute recordings were acquired at 4 frames per second, saved as a .TIFF stack, and movement was analyzed using ImageJ software as described in (PMID: 27187180, PMID: 27397763).

[2] = molecular target: Sm.5HTR (Schistosoma mansoni, UniProt A0A173FEI8); assay: cell-based
Experimental: HEK293 cells (ATCC CRL-1573.3) were cultured in growth media consisting of DMEM supplemented with GlutaMAX (Gibco cat #10566016)+10% heat inactivated fetal bovine serum and penicillin-streptomycin (100 units/mL, ThermoFisher). Stable cell lines for the pGloSensor-22F cAMP Plasmid (Promega) and schistosome 5HTRs in pcDNA3.1(−) were selected with hygromycin (200 μg/mL) and G418 (400 μg/mL). The correct identity of each stably expressed sequence was verified by isolating total RNA from each stable line (TRIzol Reagent, Ambion) and amplifying the sequence of interest with gene specific primers flanking the 5′ and 3′ regions of the cds (SuperScript® III One-Step RT-PCR System, Invitrogen). PCR products were ligated into a TA cloning vector (pGEM-T Easy, Promega) and sequenced.
HEK293 lines stably expressing both the 22F cAMP sensor and Sm.5HTR were cultured in growth media supplemented with 10% dialyzed FRS. For cAMP assays in 96 well format, cells cultured in T-75 flasks were trypsinized (TrypLE Express, Gibco) and plated in solid white 96 well plates (Costar cat #3917) the day prior to assay at a density of 2.5×10^4 cells/well. The following day media was removed and replaced with assay buffer consisting of HBSS buffered with HEPES (20 mM, pH 7.4)+BSA (0.1% w/v) and D-luciferin sodium salt (1 mg/mL, Gold Biotechnology). Plates were equilibrated at room temperature for 1 hour, at which point 3-Isobutyl-1-methylxanthine (IBMX 200 μM, Sigma Aldrich) was added. Plates were equilibrated a further 30 minutes prior to test compound addition. […] Readings performed in 384 well format were modified so that cells were assayed in suspension. Cells were grown to 70% confluence in T-75 flasks, trypsinized and pelleted (300 RCF×5 minutes). Media was removed and cells were resuspended in 25 mL assay buffer supplemented with IBMX (200 μM). A 96 channel semi-automated pipet (Eppendorf epMotion 96) delivered 55 μL of cell suspension per well (5000 cells/well) into solid white 384 plates (Corning 3574).

[3] = molecular target: Sm.5HTR (Schistosoma mansoni, UniProt G4V5G4); type: cell-based; settings: FIG. 10A
[4] = tested on: adult schistosomes; assay: Egg laying assay, adult schistosome pairs in vitro; type: cell-based, Schistosoma mansoni
Text: as §1
For egg laying assays, adult schistosomes were transferred to 24 well plates the day after harvesting from mice (5 worm pairs in 2 mL media per well). Eggs were counted under a stereomicroscope daily, after which worms were transferred to a new well with fresh drug containing media. Egg counts were recorded for five days, and data processed as the mean number of eggs laid per worm pair/day. Measurements of egg dimensions were quantified using the “analyze>measure” function in ImageJ to record the length and width of individual eggs.

Sm.5HTR (Schistosoma mansoni, UniProt G4V5G4), sequence (G4V5G4 entry or part of it): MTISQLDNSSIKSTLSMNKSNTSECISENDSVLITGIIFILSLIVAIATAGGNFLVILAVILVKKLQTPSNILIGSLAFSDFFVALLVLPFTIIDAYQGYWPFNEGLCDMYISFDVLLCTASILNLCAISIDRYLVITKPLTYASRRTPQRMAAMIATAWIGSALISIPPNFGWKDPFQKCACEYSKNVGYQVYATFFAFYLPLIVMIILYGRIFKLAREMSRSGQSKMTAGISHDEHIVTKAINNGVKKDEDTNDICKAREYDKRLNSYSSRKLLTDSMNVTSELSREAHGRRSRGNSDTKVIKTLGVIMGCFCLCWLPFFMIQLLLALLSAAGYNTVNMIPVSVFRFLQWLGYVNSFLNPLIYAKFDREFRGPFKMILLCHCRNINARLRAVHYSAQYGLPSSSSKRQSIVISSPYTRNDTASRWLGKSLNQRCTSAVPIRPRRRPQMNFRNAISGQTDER
Sm.5HTR (Schistosoma mansoni, UniProt A0A173FEI8), sequence (A0A173FEI8 entry or part of it): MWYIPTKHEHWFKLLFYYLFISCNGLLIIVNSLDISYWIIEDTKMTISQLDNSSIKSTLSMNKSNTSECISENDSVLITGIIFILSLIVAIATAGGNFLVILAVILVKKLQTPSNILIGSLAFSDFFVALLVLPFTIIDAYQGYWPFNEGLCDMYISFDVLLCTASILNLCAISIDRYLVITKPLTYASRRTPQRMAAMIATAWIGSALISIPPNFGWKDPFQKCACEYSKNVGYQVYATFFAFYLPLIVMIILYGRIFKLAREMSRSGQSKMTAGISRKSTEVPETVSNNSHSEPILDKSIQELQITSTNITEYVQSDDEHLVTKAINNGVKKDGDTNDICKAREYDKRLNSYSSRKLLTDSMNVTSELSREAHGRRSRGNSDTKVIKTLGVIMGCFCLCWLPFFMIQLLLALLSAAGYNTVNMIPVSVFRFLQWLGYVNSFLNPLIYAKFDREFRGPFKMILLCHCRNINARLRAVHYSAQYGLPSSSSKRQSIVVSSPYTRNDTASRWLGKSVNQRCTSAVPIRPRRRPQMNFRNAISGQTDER

**Q.** For `CN1C[C@H](C(=O)N[C@]2(C)O[C@@]3(O)[C@@H]4CCCN4C(=O)[C@H](Cc4ccccc4)N3C2=O)C=C2c3cccc4[nH]cc(c34)C[C@H]21` [ergotamine], which EC50 [1] is on record?
**A.** Its EC50 is 10 ± 3 nM.

**Q.** And the EC50 [2]?
**A.** The EC50 was 43 ± 13 nM.

**Q.** And the Emax ([2]; HEK293, read-out: Sm.5HTR Emax)?
**A.** The Emax was 95 ± 5%.

**Q.** And the “agonist efficacy at Sm.5HTR, in words” value [3]?
**A.** Its value is “partial agonism”.

**Q.** What about the EC50 ([3]; read-out: EC50, agonist activity at Sm.5HTR) of the same compound?
**A.** The EC50 was 232 nM.

**Q.** What about the “reduction in size of eggs” value ([4]; FIGS. 19H&I, ergotamine 1 μM) of the same compound?
**A.** The value was 43%.

**Q.** What about the “decrease of egg laying” value ([4]; serotonin 100 μM, forskolin 100 μM, LSD 10 μM, nuciferine 10 μM, ergotamine 5 μM (FIG. 19F), eggs per worm pair/day over five days) of the same compound?
**A.** Its value is 54%.
